From PMC10836395, “Investigation of how gate residues in the main channel affect the catalytic activity of Scytalidium thermophilum catalase” (Acta Crystallographica. Section D, Structural Biology, 2024)
Marks after values point to notes of the source that are not given here.

Columns and labels:
CATPO [1] = molecular target: T1, CATPO (Scytalidium thermophilum (Humicola insolens), UniProt M4GGR5); test: Substrate-specificity analysis of the phenol oxidase activity; format: biochemical
CATPO E484A variant [2] = molecular target: T2, CATPO E484A variant (Scytalidium thermophilum (Humicola insolens), UniProt M4GGR5, E503A); test: as above; format: biochemical; conditions: for K m: pH 7.0 (ABTS pH 5.0), 60°C
T2 sequence (M4GGR5 entry or part of it E503A): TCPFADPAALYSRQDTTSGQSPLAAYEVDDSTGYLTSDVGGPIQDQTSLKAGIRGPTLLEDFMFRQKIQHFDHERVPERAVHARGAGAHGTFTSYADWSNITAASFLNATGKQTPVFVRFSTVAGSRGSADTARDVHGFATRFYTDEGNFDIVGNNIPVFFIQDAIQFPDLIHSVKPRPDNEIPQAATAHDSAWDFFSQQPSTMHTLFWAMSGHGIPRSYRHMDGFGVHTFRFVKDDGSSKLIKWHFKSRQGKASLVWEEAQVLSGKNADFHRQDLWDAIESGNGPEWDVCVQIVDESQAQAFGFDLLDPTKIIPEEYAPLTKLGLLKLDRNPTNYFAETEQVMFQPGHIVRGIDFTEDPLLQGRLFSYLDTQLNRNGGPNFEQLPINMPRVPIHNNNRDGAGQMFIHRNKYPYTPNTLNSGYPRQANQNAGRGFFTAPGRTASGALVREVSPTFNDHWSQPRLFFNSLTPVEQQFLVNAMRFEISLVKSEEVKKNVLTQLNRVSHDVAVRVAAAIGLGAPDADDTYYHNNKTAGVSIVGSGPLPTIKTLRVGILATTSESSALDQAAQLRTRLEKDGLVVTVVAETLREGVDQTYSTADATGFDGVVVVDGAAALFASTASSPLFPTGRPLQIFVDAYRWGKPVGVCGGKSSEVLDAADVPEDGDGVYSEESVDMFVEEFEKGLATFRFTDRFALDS

CATPO E484D variant [3] = molecular target: T3, CATPO E484D variant (Scytalidium thermophilum (Humicola insolens), UniProt M4GGR5, E503D); format: biochemical; conditions: for K m: pH 7.0 (ABTS pH 5.0), 60°C
T3 sequence (M4GGR5 entry or part of it E503D): as the sequence (M4GGR5 entry or part of it E503A) above

CATPO E484I variant [4] = molecular target: T4, CATPO E484I variant (Scytalidium thermophilum (Humicola insolens), UniProt M4GGR5, E503I); format: biochemical; conditions: for K m: pH 7.0 (ABTS pH 5.0), 60°C
T4 sequence (M4GGR5 entry or part of it E503I): as the sequence (M4GGR5 entry or part of it E503A) above

CATPO T188A variant [5] = molecular target: T5, CATPO T188A variant (Scytalidium thermophilum (Humicola insolens), UniProt M4GGR5, T207A); format: biochemical; conditions: for K m: pH 7.0 (ABTS pH 5.0), 60°C
T5 sequence (M4GGR5 entry or part of it T207A): as the sequence (M4GGR5 entry or part of it E503A) above

CATPO T188D variant [6] = molecular target: T6, CATPO T188D variant (Scytalidium thermophilum (Humicola insolens), UniProt M4GGR5, T207D); format: biochemical; conditions: for K m: pH 7.0 (ABTS pH 5.0), 60°C
T6 sequence (M4GGR5 entry or part of it T207D): as the sequence (M4GGR5 entry or part of it E503A) above

CATPO T188F variant [7] = molecular target: T7, CATPO T188F variant (Scytalidium thermophilum (Humicola insolens), UniProt M4GGR5, T207F); format: biochemical; conditions: for K m: pH 7.0 (ABTS pH 5.0), 60°C
T7 sequence (M4GGR5 entry or part of it T207F): as the sequence (M4GGR5 entry or part of it E503A) above

CATPO T188I variant [8] = molecular target: T8, CATPO T188I variant (Scytalidium thermophilum (Humicola insolens), UniProt M4GGR5, T207I); format: biochemical; conditions: for K m: pH 7.0 (ABTS pH 5.0), 60°C
T8 sequence (M4GGR5 entry or part of it T207I): as the sequence (M4GGR5 entry or part of it E503A) above

CATPO [9] = molecular target: T1, CATPO; test: Inhibition of catechol oxidation; format: biochemical; conditions: catechol oxidation by CATPO; catechol 1 to 100 mM; read-out: K i
CATPO E484A variant [10] = molecular target: T2, CATPO E484A variant; test: biochemical
CATPO E484D variant [11] = molecular target: T3, CATPO E484D variant; test: biochemical
CATPO E484I variant [12] = molecular target: T4, CATPO E484I variant; test: biochemical
CATPO T188A variant [13] = molecular target: T5, CATPO T188A variant; test: biochemical
CATPO T188D variant [14] = molecular target: T6, CATPO T188D variant; test: biochemical
CATPO T188F variant [15] = molecular target: T7, CATPO T188F variant; test: biochemical
CATPO T188I variant [16] = molecular target: T8, CATPO T188I variant; test: biochemical

T1 sequence (M4GGR5 entry or part of it): as the sequence (M4GGR5 entry or part of it E503A) above

CC(C)(C)c1ccc(O)c(O)c1 [1,4-tert-Butylcatechol, 4-tert-butylcatechol]
V max (CATPO [1]): 20000 ± 362 mM/min
k cat/K m (CATPO [1]): 1240 ± 90 s^−1 M^−1 (×10^2)
V max (CATPO E484A variant [2]): 65000 ± 745 mM/min
k cat/K m (CATPO E484A variant [2]): 10000 ± 65 s^−1 M^−1 (×10^2)
K m (CATPO E484A variant [2]): 33 ± 0.5 mM
V max (CATPO E484D variant [3]): 18800 ± 144 mM/min
k cat/K m (CATPO E484D variant [3]): 1300 ± 100 s^−1 M^−1 (×10^2)
K m (CATPO E484D variant [3]): 38 ± 0.5 mM
V max (CATPO E484I variant [4]): 28600 ± 430 mM/min
k cat/K m (CATPO E484I variant [4]): 4450 ± 66 s^−1 M^−1 (×10^2)
K m (CATPO E484I variant [4]): 37 ± 0.4 mM
V max (CATPO T188A variant [5]): 19400 ± 568 mM/min
k cat/K m (CATPO T188A variant [5]): 1460 ± 150 s^−1 M^−1 (×10^2)
K m (CATPO T188A variant [5]): 37 ± 1.0 mM
V max (CATPO T188D variant [6]): 18000 ± 500 mM/min
k cat/K m (CATPO T188D variant [6]): 6590 ± 150 s^−1 M^−1 (×10^2)
K m (CATPO T188D variant [6]): 38 ± 0.5 mM
V max (CATPO T188F variant [7]): 41600 ± 340 mM/min
k cat/K m (CATPO T188F variant [7]): 5230 ± 145 s^−1 M^−1 (×10^2)
K m (CATPO T188F variant [7]): 34 ± 0.4 mM
V max (CATPO T188I variant [8]): 30500 ± 650 mM/min
k cat/K m (CATPO T188I variant [8]): 4900 ± 410 s^−1 M^−1 (×10^2)
K m (CATPO T188I variant [8]): 35 ± 0.5 mM
Ki (CATPO [9]): 2.1 ± 0.8 mM
Ki (CATPO E484A variant [10]): 67 ± 7 mM
Ki (CATPO E484D variant [11]): 2.2 ± 0.5 mM
Ki (CATPO E484I variant [12]): 50 ± 1.5 mM
Ki (CATPO T188A variant [13]): 2.1 ± 0.1 mM
Ki (CATPO T188D variant [14]): 49 ± 3.2 mM
Ki (CATPO T188F variant [15]): 59 ± 4.5 mM
Ki (CATPO T188I variant [16]): 53 ± 4.5 mM

Cc1ccc(O)c(O)c1 [4-Methylcatechol, 4-methylcatechol]
V max (CATPO [1]): 21320 ± 845 mM/min
k cat/K m (CATPO [1]): 1580 ± 110 s^−1 M^−1 (×10^2)
V max (CATPO E484A variant [2]): 75500 ± 550 mM/min
k cat/K m (CATPO E484A variant [2]): 10100 ± 90 s^−1 M^−1 (×10^2)
K m (CATPO E484A variant [2]): 33 ± 1.0 mM
V max (CATPO E484D variant [3]): 20600 ± 712 mM/min
k cat/K m (CATPO E484D variant [3]): 1500 ± 88 s^−1 M^−1 (×10^2)
K m (CATPO E484D variant [3]): 36 ± 0.1 mM
V max (CATPO E484I variant [4]): 41500 ± 840 mM/min
k cat/K m (CATPO E484I variant [4]): 5480 ± 80 s^−1 M^−1 (×10^2)
K m (CATPO E484I variant [4]): 35 ± 0.7 mM
V max (CATPO T188A variant [5]): 21000 ± 880 mM/min
k cat/K m (CATPO T188A variant [5]): 1640 ± 210 s^−1 M^−1 (×10^2)
K m (CATPO T188A variant [5]): 35 ± 1.0 mM
V max (CATPO T188D variant [6]): 28000 ± 970 mM/min
k cat/K m (CATPO T188D variant [6]): 7620 ± 100 s^−1 M^−1 (×10^2)
K m (CATPO T188D variant [6]): 30 ± 0.1 mM
V max (CATPO T188F variant [7]): 54150 ± 800 mM/min
k cat/K m (CATPO T188F variant [7]): 6570 ± 560 s^−1 M^−1 (×10^2)
K m (CATPO T188F variant [7]): 32 ± 1.0 mM
V max (CATPO T188I variant [8]): 43000 ± 900 mM/min
k cat/K m (CATPO T188I variant [8]): 6600 ± 600 s^−1 M^−1 (×10^2)
K m (CATPO T188I variant [8]): 34 ± 1.2 mM
Ki (CATPO [9]): 1.5 ± 0.4 mM
Ki (CATPO E484A variant [10]): 55 ± 5 mM
Ki (CATPO E484D variant [11]): 1.5 ± 0.1 mM
Ki (CATPO E484I variant [12]): 46 ± 2 mM
Ki (CATPO T188A variant [13]): 1.5 ± 0.4 mM
Ki (CATPO T188D variant [14]): 50 ± 2.5 mM
Ki (CATPO T188F variant [15]): 45 ± 4.8 mM
Ki (CATPO T188I variant [16]): 40 ± 2.4 mM
